Data from the NIST ThermoML archive (doi:10.1021/je300873x).
± gives the expanded uncertainty stated by the source.

Assay: mn = molality of the nth substance listed, in mol/kg
Conditions: for surface tension liquid-gas: Pendant drop shape; for electrical conductivity: Liquid, Digital conductivity meter

Which surface tension liquid-gas (298.15 K, m1 = 0.0003) does the source give for `CCCCCCCCCCCCCC[N+](C)(CCO)CCO.[Br-]` [N,N-bis(2-hydroxyethyl)-N-methyltetradecanaminium bromide] + O here?
Its surface tension liquid-gas is 64.43 ± 0.58 mN/m.

What about the surface tension liquid-gas (298.15 K, m1 = 0.00061) of the same compound?
The surface tension liquid-gas was 59.09 ± 0.54 mN/m.

What about the surface tension liquid-gas (298.15 K, m1 = 0.00081) of the same compound?
The surface tension liquid-gas was 56.14 ± 0.51 mN/m.

What about the surface tension liquid-gas (298.15 K, m1 = 0.00102) of the same compound?
Its surface tension liquid-gas is 54.31 ± 0.5 mN/m.

And the surface tension liquid-gas (298.15 K, m1 = 0.00152)?
Its surface tension liquid-gas is 48.51 ± 0.45 mN/m.

And the surface tension liquid-gas (298.15 K, m1 = 0.00203)?
Its surface tension liquid-gas is 44.69 ± 0.42 mN/m.

And the surface tension liquid-gas (298.15 K, m1 = 0.00254)?
Its surface tension liquid-gas is 40.4 ± 0.39 mN/m.

What about the surface tension liquid-gas (298.15 K, m1 = 0.00305) of the same compound?
Its surface tension liquid-gas is 38.3 ± 0.37 mN/m.

What about the surface tension liquid-gas (298.15 K, m1 = 0.00467) of the same compound?
The surface tension liquid-gas was 38.31 ± 0.37 mN/m.

And the surface tension liquid-gas (298.15 K, m1 = 0.00508)?
The surface tension liquid-gas was 38.46 ± 0.38 mN/m.

What about the surface tension liquid-gas (298.15 K, m1 = 0.00609) of the same compound?
Its surface tension liquid-gas is 38.23 ± 0.37 mN/m.

And the surface tension liquid-gas (298.15 K, m1 = 0.00812)?
The surface tension liquid-gas was 38.23 ± 0.37 mN/m.

And the electrical conductivity (298.15 K, m1 = 0.0026)?
The electrical conductivity was 0.021 ± 0.0001 S/m.

What about the electrical conductivity (298.15 K, m1 = 0.0027) of the same compound?
The electrical conductivity was 0.0218 ± 0.0001 S/m.

What about the electrical conductivity (298.15 K, m1 = 0.0028) of the same compound?
The electrical conductivity was 0.0226 ± 0.0001 S/m.

And the electrical conductivity (298.15 K, m1 = 0.00292)?
Its electrical conductivity is 0.0235 ± 0.0001 S/m.

And the electrical conductivity (298.15 K, m1 = 0.00305)?
The electrical conductivity was 0.0242 ± 0.0001 S/m.

And the electrical conductivity (298.15 K, m1 = 0.00319)?
The electrical conductivity was 0.025 ± 0.0001 S/m.

What about the electrical conductivity (298.15 K, m1 = 0.00334) of the same compound?
The electrical conductivity was 0.0255 ± 0.0001 S/m.

What about the electrical conductivity (298.15 K, m1 = 0.00351) of the same compound?
The electrical conductivity was 0.0259 ± 0.0001 S/m.

What about the electrical conductivity (298.15 K, m1 = 0.00369) of the same compound?
Its electrical conductivity is 0.0262 ± 0.0001 S/m.

What about the electrical conductivity (298.15 K, m1 = 0.0039) of the same compound?
Its electrical conductivity is 0.0267 ± 0.0001 S/m.

And the electrical conductivity (298.15 K, m1 = 0.00412)?
The electrical conductivity was 0.0272 ± 0.0001 S/m.

What about the electrical conductivity (298.15 K, m1 = 0.00438) of the same compound?
Its electrical conductivity is 0.0277 ± 0.0001 S/m.

And the electrical conductivity (298.15 K, m1 = 0.00467)?
Its electrical conductivity is 0.0283 ± 0.0001 S/m.

What about the electrical conductivity (298.15 K, m1 = 0.00501) of the same compound?
The electrical conductivity was 0.0289 ± 0.0001 S/m.

And the electrical conductivity (298.15 K, m1 = 0.00539)?
Its electrical conductivity is 0.0298 ± 0.0001 S/m.

What about the electrical conductivity (298.15 K, m1 = 0.00584) of the same compound?
The electrical conductivity was 0.0306 ± 0.0001 S/m.

What about the electrical conductivity (298.15 K, m1 = 0.00637) of the same compound?
Its electrical conductivity is 0.0317 ± 0.0001 S/m.

What about the electrical conductivity (303.15 K, m1 = 0.00259) of the same compound?
The electrical conductivity was 0.0232 ± 0.0001 S/m.

What about the electrical conductivity (303.15 K, m1 = 0.00269) of the same compound?
Its electrical conductivity is 0.024 ± 0.0001 S/m.

What about the electrical conductivity (303.15 K, m1 = 0.0028) of the same compound?
The electrical conductivity was 0.025 ± 0.0001 S/m.

What about the electrical conductivity (303.15 K, m1 = 0.00292) of the same compound?
Its electrical conductivity is 0.0257 ± 0.0001 S/m.

What about the electrical conductivity (303.15 K, m1 = 0.00304) of the same compound?
The electrical conductivity was 0.0268 ± 0.0001 S/m.

What about the electrical conductivity (303.15 K, m1 = 0.00318) of the same compound?
The electrical conductivity was 0.0278 ± 0.0001 S/m.

And the electrical conductivity (303.15 K, m1 = 0.00333)?
The electrical conductivity was 0.0282 ± 0.0001 S/m.

What about the electrical conductivity (303.15 K, m1 = 0.0035) of the same compound?
Its electrical conductivity is 0.029 ± 0.0001 S/m.

And the electrical conductivity (303.15 K, m1 = 0.00369)?
The electrical conductivity was 0.0295 ± 0.0001 S/m.

What about the electrical conductivity (303.15 K, m1 = 0.00389) of the same compound?
The electrical conductivity was 0.03 ± 0.0001 S/m.

And the electrical conductivity (303.15 K, m1 = 0.00412)?
Its electrical conductivity is 0.0305 ± 0.0001 S/m.

And the electrical conductivity (303.15 K, m1 = 0.00438)?
The electrical conductivity was 0.0311 ± 0.0001 S/m.

And the electrical conductivity (303.15 K, m1 = 0.00467)?
The electrical conductivity was 0.0318 ± 0.0001 S/m.

And the electrical conductivity (303.15 K, m1 = 0.005)?
The electrical conductivity was 0.0325 ± 0.0001 S/m.

And the electrical conductivity (303.15 K, m1 = 0.00539)?
The electrical conductivity was 0.0334 ± 0.0001 S/m.

What about the electrical conductivity (303.15 K, m1 = 0.00584) of the same compound?
Its electrical conductivity is 0.0343 ± 0.0001 S/m.

And the electrical conductivity (303.15 K, m1 = 0.00637)?
The electrical conductivity was 0.0356 ± 0.0001 S/m.

And the electrical conductivity (308.15 K, m1 = 0.00259)?
The electrical conductivity was 0.0256 ± 0.0001 S/m.

And the electrical conductivity (308.15 K, m1 = 0.00269)?
The electrical conductivity was 0.0264 ± 0.0001 S/m.

And the electrical conductivity (308.15 K, m1 = 0.0028)?
Its electrical conductivity is 0.0274 ± 0.0001 S/m.

And the electrical conductivity (308.15 K, m1 = 0.00291)?
Its electrical conductivity is 0.0285 ± 0.0001 S/m.

What about the electrical conductivity (308.15 K, m1 = 0.00304) of the same compound?
The electrical conductivity was 0.0297 ± 0.0001 S/m.

What about the electrical conductivity (308.15 K, m1 = 0.00318) of the same compound?
The electrical conductivity was 0.0309 ± 0.0001 S/m.

What about the electrical conductivity (308.15 K, m1 = 0.00333) of the same compound?
The electrical conductivity was 0.0318 ± 0.0001 S/m.

What about the electrical conductivity (308.15 K, m1 = 0.0035) of the same compound?
Its electrical conductivity is 0.0325 ± 0.0001 S/m.

And the electrical conductivity (308.15 K, m1 = 0.00368)?
Its electrical conductivity is 0.0331 ± 0.0001 S/m.

What about the electrical conductivity (308.15 K, m1 = 0.00388) of the same compound?
Its electrical conductivity is 0.0336 ± 0.0001 S/m.

What about the electrical conductivity (308.15 K, m1 = 0.00411) of the same compound?
Its electrical conductivity is 0.0342 ± 0.0001 S/m.
